Laboratory results published in ChEMBL document CHEMBL4420076, “Amylin and calcitonin receptor agonist” (2017).
Numbered stars: 1 amine (or outer) side, 2 acyl side, 3 side chain; on linkers, the order of the positions; unused ones are H or OH. Side chains are listed from the residue outwards. Peptide text beside a SMILES is read from it. * marks the point of attachment. C20 diacid = O=C(O)CCCCCCCCCCCCCCCCCCC(=O)*; γGlu = O=C(O)[C@H](CCC(=O)[*:2])N[*:1]

Assays:
[1] = Solubility in 100 mM bistrispropane buffer at pH 8.0 incubated for 18 hrs by UPLC analysis; type: physicochemical
[2] = Solubility in 100 mM glycylglycine buffer at pH 3.0 incubated for 18 hrs by UPLC analysis; type: physicochemical
[3] = Solubility in 100 mM bistrispropane buffer at pH 7.5 incubated for 18 hrs by UPLC analysis; type: physicochemical
[4] = Solubility in 100 mM glycylglycine buffer at pH 5.0 incubated for 18 hrs by UPLC analysis; type: physicochemical
[5] = Solubility in 100 mM bistrispropane buffer at pH 6.5 incubated for 18 hrs by UPLC analysis; type: physicochemical
[6] = Solubility in 100 mM glycylglycine buffer at pH 4.0 incubated for 18 hrs by UPLC analysis; type: physicochemical
[7] = molecular target: T1, Amylin receptor AMY3; CALCR/RAMP3 (Homo sapiens, UniProt O60896+P30988); assay: Agonist activity at human amylin receptor expressed in BHK570 cells co-expressing RAMP3 assessed as increase in intracellular cAMP concentration incubated for 3 hrs in absence of albumin by CRE luciferase reporter gene assay; type: functional, cell-based
T1 sequence (P30988 whole entry): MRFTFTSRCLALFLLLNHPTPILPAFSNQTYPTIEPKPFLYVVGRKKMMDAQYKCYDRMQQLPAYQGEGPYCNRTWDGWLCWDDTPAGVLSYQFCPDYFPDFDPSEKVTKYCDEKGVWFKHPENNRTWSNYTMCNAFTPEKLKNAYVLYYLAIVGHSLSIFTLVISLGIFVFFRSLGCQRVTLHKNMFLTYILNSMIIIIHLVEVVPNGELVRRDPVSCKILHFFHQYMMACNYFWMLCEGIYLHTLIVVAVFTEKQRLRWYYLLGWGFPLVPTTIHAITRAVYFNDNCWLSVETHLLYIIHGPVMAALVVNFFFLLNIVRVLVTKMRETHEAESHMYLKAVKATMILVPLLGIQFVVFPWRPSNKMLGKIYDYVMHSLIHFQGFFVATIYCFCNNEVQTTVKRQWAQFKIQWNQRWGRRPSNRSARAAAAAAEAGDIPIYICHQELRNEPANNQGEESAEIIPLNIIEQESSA
T1 sequence (O60896 whole entry): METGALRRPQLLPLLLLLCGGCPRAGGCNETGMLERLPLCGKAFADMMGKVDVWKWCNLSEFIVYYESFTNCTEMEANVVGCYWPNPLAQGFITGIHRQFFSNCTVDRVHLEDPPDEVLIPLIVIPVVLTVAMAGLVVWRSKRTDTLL

Calcitonin receptor [8] = molecular target: T2, Calcitonin receptor (Homo sapiens, UniProt P30988); assay: Displacement of [125I]-labeled human calcitonin from human calcitonin receptor expressed in BHK tkts13 cell membranes incubated for 1 hr by scintillation proximity assay
T2 sequence (P30988 whole entry): T1 sequence (P30988 whole entry)

[9] = Solubility in 100 mM bistrispropane buffer at pH 7.0 incubated for 18 hrs by UPLC analysis; type: physicochemical
Calcitonin receptor [10] = molecular target: T2, Calcitonin receptor; assay: Agonist activity at human calcitonin receptor expressed in BHK570 cells assessed as increase in intracellular cAMP concentration incubated for 3 hrs in presence of 10% FBS by CRE luciferase reporter gene assay; type: functional, cell-based
[11] = Solubility in 100 mM bistrispropane buffer at pH 6.0 incubated for 18 hrs by UPLC analysis; type: physicochemical
Calcitonin receptor [12] = molecular target: T2, Calcitonin receptor; assay: Agonist activity at human calcitonin receptor expressed in BHK570 cells assessed as increase in intracellular cAMP concentration incubated for 3 hrs in absence of albumin by CRE luciferase reporter gene assay; type: functional, cell-based
[13] = molecular target: T3, Amylin receptor AMY3; CALCR/RAMP3 (Rattus norvegicus, UniProt P32214+Q9JJ73); assay: Displacement of [125I]-labeled rat amylin from rat amylin receptor expressed in BHK tkts13 cell membranes co-expressing RAMP3 incubated for 120 mins by scintillation proximity assay
T3 sequence (P32214 whole entry): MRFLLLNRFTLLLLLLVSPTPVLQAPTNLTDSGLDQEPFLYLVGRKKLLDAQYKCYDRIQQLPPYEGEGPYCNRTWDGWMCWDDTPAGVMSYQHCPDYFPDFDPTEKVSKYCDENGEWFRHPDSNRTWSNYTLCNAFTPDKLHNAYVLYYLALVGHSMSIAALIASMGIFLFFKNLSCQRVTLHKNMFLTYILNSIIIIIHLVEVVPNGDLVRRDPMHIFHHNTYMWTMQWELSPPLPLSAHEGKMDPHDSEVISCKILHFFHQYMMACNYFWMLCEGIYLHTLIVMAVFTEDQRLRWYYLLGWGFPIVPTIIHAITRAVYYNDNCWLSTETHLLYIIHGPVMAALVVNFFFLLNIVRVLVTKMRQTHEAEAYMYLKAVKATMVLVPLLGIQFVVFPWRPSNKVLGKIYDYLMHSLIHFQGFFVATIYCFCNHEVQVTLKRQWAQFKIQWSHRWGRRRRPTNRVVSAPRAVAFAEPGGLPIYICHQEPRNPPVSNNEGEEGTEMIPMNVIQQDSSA
T3 sequence (Q9JJ73 whole entry): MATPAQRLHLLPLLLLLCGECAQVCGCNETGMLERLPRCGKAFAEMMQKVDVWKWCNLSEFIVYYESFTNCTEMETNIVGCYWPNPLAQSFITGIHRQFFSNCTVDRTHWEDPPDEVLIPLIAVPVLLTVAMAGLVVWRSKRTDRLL

[14] = molecular target: T1, Amylin receptor AMY3; CALCR/RAMP3; assay: Agonist activity at human amylin receptor expressed in BHK570 cells co-expressing RAMP3 assessed as increase in intracellular cAMP concentration incubated for 3 hrs in presence of 10% FBS by CRE luciferase reporter gene assay; type: functional, cell-based
[15] = molecular target: T1, Amylin receptor AMY3; CALCR/RAMP3; assay: Displacement of [125I]-labeled rat amylin from human amylin receptor expressed in BHK tkts13 whole cells co-expressing RAMP3 incubated for 60 mins by scintillation proximity assay; type: cell-based

| solubility at 18 h [1] [µM] | solubility at 18 h [2] [µM] | solubility at 18 h [3] [µM] | solubility at 18 h [4] [µM] | solubility at 18 h [5] [µM] | solubility at 18 h [6] [µM] | EC50 [7] [nM] | IC50 (Calcitonin receptor [8]) [nM] | solubility at 18 h [9] [µM] | EC50 (Calcitonin receptor [10]) [nM] | solubility at 18 h [11] [µM] | EC50 (Calcitonin receptor [12]) [nM] | IC50 [13] [nM] | EC50 [14] [nM] | IC50 [15] [nM] | Structure (SMILES) |
| --- | --- | --- | --- | --- | --- | --- | --- | --- | --- | --- | --- | --- | --- | --- | --- |
| ≥ 200 | ≥ 200 | ≥ 200 | ≥ 200 | ≥ 200 | ≥ 200 | 0.032 | 0.077 | ≥ 200 | 0.022 | ≥ 200 | 0.019 | 0.684 | 0.047 | – | CC(=O)N[C@@H](C)C(=O)N[C@@H](CO)C(=O)N[C@@H](CCC(=O)O)C(=O)N[C@@H](CC(C)C)C(=O)N[C@@H](CO)C(=O)N[C@H](C(=O)N[C@@H](C)C(=O)N[C@@H](C)C(=O)N[C@@H](CC(C)C)C(=O)NCC(=O)N[C@@H](CCCNC(=N)N)C(=O)N[C@@H](CC(C)C)C(=O)N[C@@H](CO)C(=O)N[C@@H](C)C(=O)N[C@@H](CCC(=O)O)C(=O)N[C@@H](CC(C)C)C(=O)N[C@@H](Cc1cnc[nH]1)C(=O)N[C@@H](CCCCNC(=O)CC[C@H](NC(=O)CCCCCCCCCCCCCCCCCCC(=O)O)C(=O)O)C(=O)N[C@@H](CC(C)C)C(=O)N[C@@H](C)C(=O)N[C@H](C(=O)N[C@@H](CC(C)C)C(=O)N1CCC[C@H]1C(=O)N[C@@H](CCCNC(=N)N)C(=O)N[C@H](C(=O)N[C@@H](CCC(=O)O)C(=O)N[C@H](C(=O)NCC(=O)N[C@@H](CO)C(=O)NCC(=O)N[C@@H](CO)C(=O)N1CCC[C@H]1C(N)=O)[C@@H](C)O)[C@@H](C)O)[C@@H](C)O)[C@@H](C)O (Ac-ASELSTAALGRLSAELHK([γGlu-C20 diacid])LATLPRTETGSGSP-NH2) |
| ≥ 200 | ≥ 200 | ≥ 200 | – | – | – | 0.017 | 0.1 | ≥ 200 | 0.108 | – | 0.016 | 0.046 | 0.143 | 3.17 | CC(C)C[C@H](NC(=O)[C@H](CO)NC(=O)[C@H](C)NC(=O)[C@@H](NC(=O)[C@H](CO)NC(=O)[C@H](CC(C)C)NC(=O)[C@H](CCC(=O)O)NC(=O)[C@H](CO)NC(=O)[C@H](C)NC(=O)CC[C@H](NC(=O)CCCCCCCCCCCCCCCCCCC(=O)O)C(=O)O)[C@@H](C)O)C(=O)NCC(=O)N[C@@H](CCCNC(=N)N)C(=O)N[C@@H](CC(C)C)C(=O)N[C@@H](CO)C(=O)N[C@@H](C)C(=O)N[C@@H](CCC(=O)O)C(=O)N[C@@H](CC(C)C)C(=O)N[C@@H](Cc1cnc[nH]1)C(=O)N[C@@H](CCC(=O)O)C(=O)N[C@@H](CC(C)C)C(=O)N[C@@H](CO)C(=O)N[C@H](C(=O)N[C@@H](Cc1ccc(O)cc1)C(=O)N1CCC[C@H]1C(=O)N[C@@H](CCCNC(=N)N)C(=O)N[C@H](C(=O)N[C@@H](CCC(=O)O)C(=O)N[C@H](C(=O)NCC(=O)N[C@@H](CO)C(=O)NCC(=O)N[C@@H](CO)C(=O)N[C@@H](Cc1ccc(O)cc1)C(N)=O)[C@@H](C)O)[C@@H](C)O)[C@@H](C)O ({C20 diacid-γGlu}-ASELSTASLGRLSAELHELSTYPRTETGSGSY-NH2) |
| ≥ 200 | ≥ 200 | ≥ 200 | ≥ 200 | ≥ 200 | – | 0.023 | 0.053 | ≥ 200 | 0.077 | ≥ 200 | 0.019 | 0.098 | – | 0.116 | CC(C)C[C@H](NC(=O)CNC(=O)[C@H](CO)NC(=O)[C@H](C)NC(=O)CC[C@H](NC(=O)CCCCCCCCCCCCCCCCCCC(=O)O)C(=O)O)C(=O)N[C@@H](CO)C(=O)N[C@H](C(=O)N[C@@H](C)C(=O)N[C@H](C(=O)N[C@@H](CC(C)C)C(=O)NCC(=O)N[C@@H](CCCNC(=N)N)C(=O)N[C@@H](CC(C)C)C(=O)N[C@@H](CO)C(=O)N[C@@H](CCC(N)=O)C(=O)N[C@@H](CCC(=O)O)C(=O)N[C@@H](CC(C)C)C(=O)N[C@@H](Cc1cnc[nH]1)C(=O)N[C@@H](CCC(=O)O)C(=O)N[C@@H](CC(C)C)C(=O)N[C@@H](CCC(N)=O)C(=O)N[C@H](C(=O)N[C@@H](Cc1ccc(O)cc1)C(=O)N1CCC[C@H]1C(=O)N1CCC[C@H]1C(=O)N[C@H](C(=O)N[C@@H](CCC(=O)O)C(=O)N[C@H](C(=O)NCC(=O)N[C@@H](CO)C(=O)NCC(=O)N[C@H](C(=O)N[C@@H](Cc1ccc(O)cc1)C(N)=O)[C@@H](C)O)[C@@H](C)O)[C@@H](C)O)[C@@H](C)O)[C@@H](C)O)[C@@H](C)O ({C20 diacid-γGlu}-ASGLSTATLGRLSQELHELQTYPPTETGSGTY-NH2) |
| – | – | – | – | – | – | 0.016 | 0.131 | – | 0.05 | – | 0.015 | 1.16 | 0.037 | 3.7 | CC(C)C[C@H](NC(=O)[C@H](CCCNC(=N)N)NC(=O)CNC(=O)[C@H](CC(C)C)NC(=O)[C@@H](NC(=O)[C@H](C)NC(=O)[C@@H](NC(=O)[C@H](CO)NC(=O)[C@H](CC(C)C)NC(=O)[C@H](CCC(N)=O)NC(=O)[C@H](CO)NC(=O)[C@H](C)NC(=O)CC[C@H](NC(=O)CCCCCCCCCCCCCCCCCCC(=O)O)C(=O)O)[C@@H](C)O)C(C)C)C(=O)N[C@@H](CO)C(=O)N[C@@H](CCC(N)=O)C(=O)N[C@@H](CCCNC(=N)N)C(=O)N[C@@H](CC(C)C)C(=O)N[C@@H](Cc1cnc[nH]1)C(=O)N[C@@H](CCCNC(=N)N)C(=O)N[C@@H](CC(C)C)C(=O)N[C@@H](CCC(N)=O)C(=O)N[C@H](C(=O)N[C@@H](Cc1ccc(O)cc1)C(=O)N1CCC[C@H]1C(=O)N[C@@H](CCCNC(=N)N)C(=O)N[C@H](C(=O)N[C@@H](CCC(N)=O)C(=O)N[C@H](C(=O)NCC(=O)N[C@@H](CO)C(=O)N[C@@H](CCC(N)=O)C(=O)N[C@H](C(=O)N[C@@H](Cc1ccc(O)cc1)C(N)=O)[C@@H](C)O)[C@@H](C)O)[C@@H](C)O)[C@@H](C)O ({C20 diacid-γGlu}-ASQLSTAVLGRLSQRLHRLQTYPRTQTGSQTY-NH2) |
